ChEMBL document CHEMBL4699530, “Isolation, Structural Elucidation, and Anti-HIV Activity of Daphnane Diterpenoids from Daphne odora” (J Nat Prod, 2020)

Assays:
[1] = system: MT4; assay: Cytotoxicity against human MT4 cells assessed as reduction in cell viability incubated for 4 days by CellTiter-Glo assay; type: cell-based; conditions: MT4, 96 h
[2] = system: Human immunodeficiency virus; assay: Antiviral activity against HIV NL4-3 infected in human MT4 cells assessed as suppression of viral replication by measuring reduction in p24 level measured after 4 days by ELISA method; type: functional, organism-based; conditions: Human immunodeficiency virus 1, NL4-3, MT4, 96 h

SMILES | IC50 [1] | EC50 [2]
C=C(C)[C@@]1(O)[C@H](OC(=O)/C=C/C=C/C=C/CCC)[C@@H]2[C@@H]3O[C@]3(CO)[C@@H](O)[C@]3(O)C(=O)C(C)=C[C@H]3[C@@]2(O)[C@H](C)[C@H]1OC(=O)/C=C/c1ccc(O)c(OC)c1 | > 34 nM | > 34 nM
C=C(C)[C@@]12O[C@@]3(/C=C/C=C/C=C/CCC)O[C@@H]1[C@@H]1[C@@H]4O[C@]4(CO)[C@@H](O)[C@]4(O)C(=O)C(C)=C[C@H]4[C@@]1(O3)[C@H](C)[C@H]2OC(=O)/C=C/c1ccc(O)c(OC)c1 | > 34 nM | 4.5 nM
C=C(C)[C@]1(O)C[C@@H](C)[C@@]2(O)[C@@H]([C@H]3O[C@@]4([C@H](O)[C@]3(O)COC(=O)c3ccccc3)[C@@H](OC(=O)/C=C/C=C/C=C/CCC)[C@@H](C)C[C@@H]24)[C@H]1O | > 34 nM | > 34 nM
C=C(C)[C@@]12O[C@@]3(/C=C/C=C/CCCCC)O[C@@H]1[C@@H]1[C@@H]4O[C@]4(CO)[C@@H](O)[C@]4(O)C(=O)C(C)=C[C@H]4[C@@]1(O3)[C@H](C)[C@H]2OC(=O)c1ccccc1 [GNIDILATIDIN] | > 34 nM | 1.9 nM
C=C(C)[C@@]12O[C@@]3(/C=C/C=C/CCCCC)O[C@@H]1[C@@H]1[C@@H]4O[C@]4(CO)[C@@H](O)[C@]4(O)C(=O)C(C)=C[C@H]4[C@@]1(O3)[C@H](C)[C@H]2OC(=O)/C=C/c1ccccc1 | > 34 nM | 2.2 nM
C=C(C)[C@@]12O[C@@]3(c4ccccc4)O[C@@H]1[C@@H]1[C@@H]4O[C@]4(CO)[C@@H](O)[C@]4(O)C(=O)C(C)=C[C@H]4[C@@]1(O3)[C@H](C)[C@H]2OC(=O)/C=C/C=C/C=C/CCC | > 34 nM | 2.3 nM
C=C(C)[C@@]12O[C@@]3(/C=C/C=C/CCCCC)O[C@@H]1[C@@H]1[C@@H]4O[C@]4(CO)[C@@H](O)[C@]4(O)C(=O)C(C)=C[C@H]4[C@@]1(O3)[C@H](C)[C@H]2OC(=O)/C=C/c1ccc(O)cc1 | > 34 nM | 7.7 nM
C=C(C)[C@@]12O[C@@]3(/C=C/C=C/C=C/CCC)O[C@@H]1[C@@H]1[C@@H]4O[C@]4(CO)[C@@H](O)[C@]4(O)C(=O)C(C)=C[C@H]4[C@@]1(O3)[C@H](C)[C@H]2OC(=O)/C=C/c1ccc(O)cc1 | > 34 nM | 1.6 nM
C=C(C)[C@@]12O[C@@]3(/C=C/C=C/C=C/CCC)O[C@@H]1[C@@H]1[C@@H]4O[C@]4(CO)[C@@H](O)[C@]4(O)C(=O)C(C)=C[C@H]4[C@@]1(O3)[C@H](C)[C@H]2OC(=O)c1ccccc1 | > 34 nM | 1.9 nM
C=C(C)[C@@]1(O)[C@H](OC(=O)/C=C/C=C/CCCCC)[C@@H]2[C@@H]3O[C@]3(CO)[C@@H](O)[C@]3(O)C(=O)C(C)=C[C@H]3[C@@]2(O)[C@H](C)[C@H]1OC(=O)/C=C/c1ccccc1 | > 34 nM | > 34 nM
C=C(C)[C@@]12O[C@@]3(/C=C/C=C/C=C/CCC)O[C@@H]1[C@@H]1[C@@H]4O[C@]4(CO)[C@@H](O)[C@]4(O)C(=O)C(C)=C[C@H]4[C@@]1(O3)[C@H](C)[C@H]2OC(=O)/C=C/c1ccccc1 | > 34 nM | 3.7 nM
C=C(C)[C@@]12O[C@@]3(/C=C/C=C/CCCCC)O[C@@H]1[C@@H]1[C@@H]4O[C@]4(CO)[C@@H](O)[C@]4(O)C(=O)C(C)=C[C@H]4[C@@]1(O3)[C@H](C)[C@H]2OC(=O)/C=C/c1ccc(O)c(OC)c1 | > 34 nM | 1.5 nM
